Measured values taken from patent US20110039762A1, “TARGETED ANTIMICROBIAL MOIETIES” (C3 JIAN, INC., priority 2009, published 2011).
Entries after “also recorded” stand apart in the source; their conditions may differ.

Test system: microorganisms (e.g., bacteria, yeasts, fungi)
Assay: Targeting peptide binding to target microorganisms (Table 3)
Details: microorganism(s) the targeting peptide binds; peptide binding conducted in aqueous buffers varied by peptide solubility, preferably 1x PBS

Substance | Target(s)
PF-490 (RLILVSGNATVQK; Peptide with targeting and/or antimicrobial activity) | S. mutans; also recorded: E. coli
PF-491 (IHQYSSKPDIVGQEAKTVQQINS; Peptide with targeting and/or antimicrobial activity) | S. mutans; also recorded: E. coli
PF-492 (IQIDAASFYSISKSTIK; Peptide with targeting and/or antimicrobial activity) | S. mutans; also recorded: B. subtilis; also recorded: E. coli
PF-493 (PGAFFFCRGRGCWCGIGW; Peptide with targeting and/or antimicrobial activity) | S. mutans; also recorded: B. subtilis; also recorded: E. coli
PF-494 (FTEPLRPLQAKGQIISIKPSTSSS; Peptide with targeting and/or antimicrobial activity) | S. mutans
PF-495 (KGIYKKRTY; Peptide with targeting and/or antimicrobial activity) | S. mutans; also recorded: E. coli
PF-496 (EVTKRLVALAQQQLRG; Peptide with targeting and/or antimicrobial activity) | S. mutans; also recorded: E. coli
PF-498 (MSEEEEVSEKVYNYLRRNEFFEVRKEEFSA; Peptide with targeting and/or antimicrobial activity) | S. mutans; also recorded: E. coli
PF-500 (MGIFKEEKIKFIDCKGEEVILKIKIKDIKK; Peptide with targeting and/or antimicrobial activity) | S. mutans; also recorded: E. coli
PF-501 (GSTAHKSPIGSTNNQWGMKKTPTD; Peptide with targeting and/or antimicrobial activity) | S. mutans
PF-502 (NKGKQMQDQTGKQPIVDNG; Peptide with targeting and/or antimicrobial activity) | S. mutans
PF-503 (VVTLKDIVAVIEDQGYDVQ; Peptide with targeting and/or antimicrobial activity) | S. mutans
PF-504 (ILSVELSTKTSASGS; Peptide with targeting and/or antimicrobial activity) | S. mutans; also recorded: E. coli
PF-505 (GYTKDPGTGI; Peptide with targeting and/or antimicrobial activity) | S. mutans
PF-506 (SGRGFALIVVLFILLIIVGAACIR; Peptide with targeting and/or antimicrobial activity) | S. mutans; also recorded: E. coli
PF-507 (LALSIANLFKKKA; Peptide with targeting and/or antimicrobial activity) | S. mutans; also recorded: E. coli
PF-508 (VSTFGKVVKVVDEK; Peptide with targeting and/or antimicrobial activity) | S. mutans
PF-509 (EAKVQAKGEQIACNNY; Peptide with targeting and/or antimicrobial activity) | S. mutans; also recorded: B. subtilis; also recorded: E. coli
PF-510 (WYLYKKQSNQNDRGIPK; Peptide with targeting and/or antimicrobial activity) | S. mutans; also recorded: E. coli
PF-568 (TQAVQVKTAQAQQQ; Peptide with targeting and/or antimicrobial activity) | S. epidermidis
PF-570 (KKFPTEESHIQAVLEFKKLTEHPSG; Peptide with targeting and/or antimicrobial activity) | S. pneumoniae; also recorded: C. jeikeium

Same assay, conditions: peptide binding in aqueous buffers varied by peptide solubility; preferably 1x PBS

Substance | Target(s) (microorganisms bound by the targeting peptide)
PF-641 (SWKCHHLAIGGSWKCHHLAI; Peptide with targeting and/or antimicrobial activity) | S. epidermidis and M. luteus and E. coli and C. albicans and MRSA and E. faecalis and C. jeikeium and C. jejuni
PF-648 (ARRYPAAGS; Peptide with targeting and/or antimicrobial activity) | S. mutans; also recorded: E. coli
PF-650 (IRSDQPGRQSRSSPRWPTGAGRHR; Peptide with targeting and/or antimicrobial activity) | Mycobacteria spp
PF-669 (RADRIESYPADGDRVITLWRNPYR; Peptide with targeting and/or antimicrobial activity) | Mycobacteria spp
PF-671 (TVSAFRTVH; Peptide with targeting and/or antimicrobial activity) | S. mutans; also recorded: E. coli
PF-673 (VRRLRM; Peptide with targeting and/or antimicrobial activity) | S. mutans; also recorded: E. coli
PF-674 (DGCDSEPALTYR; Peptide with targeting and/or antimicrobial activity) | S. mutans; also recorded: E. coli
PF-676 (AEYRGL; Peptide with targeting and/or antimicrobial activity) | S. mutans; also recorded: E. coli
PF-678 (RDRRWTRRDMYDWLESARV; Peptide with targeting and/or antimicrobial activity) | Mycobacteria spp
PF-679 (CRARFIRR; Peptide with targeting and/or antimicrobial activity) | S. mutans; also recorded: E. coli
PF-689 (SAPSG; Peptide with targeting and/or antimicrobial activity) | S. mutans; also recorded: E. coli
PF-701 (PRGAQSGHG; Peptide with targeting and/or antimicrobial activity) | S. mutans
PF-703 (MTTVDNIVGLVIAVALMAFLFAALLFPEKF; Peptide with targeting and/or antimicrobial activity) | Mycobacteria spp
PF-705 (GEEEGTVAD; Peptide with targeting and/or antimicrobial activity) | S. mutans; also recorded: E. coli
PF-706 (LGYGAWIGCGLGLNGFHRID; Peptide with targeting and/or antimicrobial activity) | L. pneumophila
PF-707 (IDPESIVTTNNKQDNVDEQ; Peptide with targeting and/or antimicrobial activity) | S. mutans; also recorded: E. coli
PF-709 (NKKHSPMD; Peptide with targeting and/or antimicrobial activity) | S. mutans

Substance | Target(s) (microorganisms bound by the targeting peptide)
PF-711 (KTAGPTGTIYKTN; Peptide with targeting and/or antimicrobial activity) | S. mutans
PF-712 (QIYRHVHKVQAKSANLRLY; Peptide with targeting and/or antimicrobial activity) | S. mutans; also recorded: E. coli
PF-714 (FVVTQRMLRMYKK; Peptide with targeting and/or antimicrobial activity) | L. pneumophila
PF-716 (HGENHHHKSDEKDNDSSEKKD; Peptide with targeting and/or antimicrobial activity) | S. mutans
PF-717 (PQSEVTFENIYAPKANGGGLYGI; Peptide with targeting and/or antimicrobial activity) | E. coli
PF-720 (SLDMGK; Peptide with targeting and/or antimicrobial activity) | S. mutans
PF-724 (CYRFLTPKRPTRIS; Peptide with targeting and/or antimicrobial activity) | L. pneumophila
PF-727 (AYARCRHDYPFTLGQMQTH; Peptide with targeting and/or antimicrobial activity) | S. mutans; also recorded: E. coli
PF-728 (AIGQEQDRREYYYYSGYPYYY; Peptide with targeting and/or antimicrobial activity) | S. mutans; also recorded: E. coli
PF-731 (RHKLIRLPLSESVFCFLNNPKI; Peptide with targeting and/or antimicrobial activity) | L. pneumophila
PF-732 (DRPSQTTHHTLSSSRITGPS; Peptide with targeting and/or antimicrobial activity) | E. coli
PF-733 (VISRQMGSEAVLELFIIM; Peptide with targeting and/or antimicrobial activity) | S. mutans; also recorded: E. coli
PF-735 (YDPLFPNDKN; Peptide with targeting and/or antimicrobial activity) | S. mutans; also recorded: E. coli
PF-750 (AESSPAKTTA; Peptide with targeting and/or antimicrobial activity) | M. luteus; also recorded: C. jeikeium
PF-751 (AESSPAQETT; Peptide with targeting and/or antimicrobial activity) | S. epidermidis; also recorded: E. coli; also recorded: C. albicans; also recorded: C. jeikeium
PF-765 (YLYWEVEHKPIIAKRDAYYAQLRKQKEIEEGA; Peptide with targeting and/or antimicrobial activity) | S. epidermidis and M. luteus and E. coli and MRSA and E. faecalis and C. jeikeium
PF-766 (DAYYAQLRKQKEIEEGA; Peptide with targeting and/or antimicrobial activity) | S. epidermidis and M. luteus and C. albicans and MRSA and E. faecalis and C. jeikeium
